Square brackets hold non-standard residues; d marks the D form. Peptide text beside a SMILES is read from it. * marks the point of attachment. Sta = CC(C)C[C@H](N)[C@@H](O)CC(=O)O; Isovaleryl = CC(C)CC(=O)*
Columns and labels:
human renin = target: T1, human renin (Homo sapiens, UniProt P00797); assay: Human Renin Inhibition in vitro (angiotensin I generation by radioimmunoassay); type: biochemical; conditions: pH 7.4, 37° C., two hours, human plasma
T1 construct: purchased National Institute for Biological Standards, London
T1 sequence (P00797 67-406): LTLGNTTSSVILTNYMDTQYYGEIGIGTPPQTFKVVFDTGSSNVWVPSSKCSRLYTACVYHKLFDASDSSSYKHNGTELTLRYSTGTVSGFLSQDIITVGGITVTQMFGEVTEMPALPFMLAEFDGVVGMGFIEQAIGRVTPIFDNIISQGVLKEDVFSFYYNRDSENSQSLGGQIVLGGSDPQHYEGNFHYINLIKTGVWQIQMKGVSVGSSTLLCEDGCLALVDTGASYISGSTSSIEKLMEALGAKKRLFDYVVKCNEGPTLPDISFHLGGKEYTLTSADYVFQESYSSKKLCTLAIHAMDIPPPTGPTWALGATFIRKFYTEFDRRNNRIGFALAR
Method: Compounds of Formula I were evaluated as inhibitors of human renin in an in vitro assay, as follows: This human renin inhibition test has been previously described in detail [Papaioannou et al., Clinical and Experimental Hypertension, A7(9), 1243-1257 (1985)]. Human renin was obtained from the National Institute for Biological Standards, London. An incubation mixture was prepared containing the following components: in a total volume of 0.25 mL: 100 mM Tris-acetate buffer at pH 7.4, 25×10^-6 Goldblatt units of renin, 0.05 mL of plasma from human volunteers taking oral contraceptives, 6.0 mM Na-EDTA, 2.4 mM phenylmethyl sulfonyl fluoride, 1.5 mM 8-hydroxyquinoline, 0.4 mg/mL bovine serum albumin (BSA), and 0.024 mg/mL neomycin sulfate. This mixture was incubated for two hours at 37° C. in the presence or absence of renin inhibitors. The produced angiotensin I was determined by radioimmunoassay (New England Nuclear kit). Test compounds to be assayed were dissolved in DMSO and diluted with 100mM Tris-acetate buffer at pH 7.4 containing 0.5% BSA to the appropriate concentration. The final concentration of organic solvent in the reaction mixture was less than 1%. Control incubations at 37° C. were used to correct for effects of organic solvent on renin activity.

acid proteases = conditions: cited from earlier work
hog renin = conditions: after the injection of hog renin into nephrectomized rats; cited from earlier work
renin = conditions: cited from earlier work
pepsin = conditions: cited from earlier work
cathepsin D = conditions: cited from earlier work

Compound: C#CC[C@H](NC(=O)[C@@H](CC(=O)N(C)CCN1CCCCC1)Cc1ccccc1)C(=O)N[C@@H](CC1CCCCC1)[C@@H](O)[C@@H](O)CC(C)C [Example 1]
- IC50 (human renin): 0.83 nM

Compound: C#CC[C@H](NC(=O)[C@@H](CC(=O)N(C)CCN1Cc2ccccc2C1)Cc1ccccc1)C(=O)N[C@@H](CC1CCCCC1)[C@@H](O)[C@@H](O)CC(C)C [Example 2]
- IC50 (human renin): 0.56 nM

Compound: C#CC[C@H](NC(=O)[C@@H](CC(=O)N(C)CCN1CC2CCC(CC2)C1)Cc1ccccc1)C(=O)N[C@@H](CC1CCCCC1)[C@@H](O)[C@@H](O)CC(C)C [Example 3]
- IC50 (human renin): 1.2 nM

Compound: CC(C)CC(=O)N[C@H](C(=O)N[C@H](C(=O)N[C@@H](CC(C)C)[C@@H](O)CC(=O)N[C@@H](C)C(=O)N[C@@H](CC(C)C)[C@@H](O)CC(=O)O)C(C)C)C(C)C [pepstatin] (Isovaleryl-VV[Sta]A[Sta]-OH)
- inhibiting acid proteases in addition to renin (acid proteases): inhibiting acid proteases in addition to renin
- reduce blood pressure in vivo (hog renin): found to reduce blood pressure in vivo
- inhibition of renin (renin): inhibitor of aspartyl proteases such as pepsin, cathepsin D and renin
- inhibition of pepsin (pepsin): inhibitor of aspartyl proteases such as pepsin
- inhibition of cathepsin D (cathepsin D): inhibitor of aspartyl proteases such as pepsin, cathepsin D

Reference: patent US5212185A, “Piperidinyl-terminated alkylamino ethynyl alanine amino diol compounds for treatment of hypertension” (G. D. Searle & Co., priority 1992, dated 1993)
